Results taken from patent US20060252766A1, “Methods using a combination of 3-heteroaryl-2-indolinone and a cyclooxygenase-2 inhibitor for the treatment of neoplasia” (PFIZER INC, priority 2002, published 2006).
Values joined by “and” are separate entries in the source; they are usually repeats but may differ in a detail not shown here. Equal values may be shown once.

Tested on: 1483 human head and neck squamous cell carcinoma (HNSCC) xenograft
Assay: HN1483 tumor model: paw tumor volume of treated mice
Type: in vivo, nude mice
Details: for Paw volume, paw / Tumor vol.: individual mice; for Tumor vol.: paw minus BKG. 0.10
[1] = Celecoxib/40 ppm, Day 17 Mar. 16, 2001
[2] = Celecoxib/40 ppm, Day 21 Mar. 20, 2001
[3] = Celecoxib/40 ppm, Day 24 Mar. 23, 2001
[4] = Celecoxib/40 ppm, Day 31 Apr. 2, 2001
[5] = Celecoxib/40 ppm, Day 31 Mar. 30, 2001
[6] = Celecoxib/160 ppm, Day 17 Mar. 16, 2001
[7] = Celecoxib/160 ppm, Day 21 Mar. 20, 2001
[8] = Celecoxib/160 ppm, Day 24 Mar. 23, 2001
[9] = Celecoxib/160 ppm, Day 31 Apr. 2, 2001
[10] = Celecoxib/160 ppm, Day 31 Mar. 30, 2001

Compound: Cc1ccc(-c2cc(C(F)(F)F)nn2-c2ccc(S(N)(=O)=O)cc2)cc1 [Celecoxib, celecoxib, reference compound]
- Paw volume, paw (Celecoxib/40 ppm, Day 14 Mar. 13, 2001): 0.28 (2×) and 0.25 (2×) and 0.24 (2×) and 0.29 and 0.27
- Tumor vol. Average (Celecoxib/40 ppm, Day 17 Mar. 16, 2001, group average): 0.17
- Paw volume, paw [1]: 0.3 and 0.29 (2×) and 0.22 and 0.32 and 0.27 and 0.25 (2×)
- Tumor vol. [1]: 0.20 and 0.19 (2×) and 0.12 and 0.22 and 0.17 and 0.15 (2×)
- Tumor vol. Average (Celecoxib/40 ppm, Day 21 Mar. 20, 2001, group average): 0.22
- Paw volume, paw [2]: 0.38 (2×) and 0.23 and 0.36 and 0.28 (2×) and 0.39 and 0.31
- Tumor vol. [2]: 0.28 (3×) and 0.13 and 0.18 (2×) and 0.29 and 0.21
- Tumor vol. Average (Celecoxib/40 ppm, Day 24 Mar. 23, 2001, group average): 0.23
- Paw volume, paw [3]: 0.37 and 0.32 and 0.23 and 0.44 and 0.28 and 0.29 and 0.47 and 0.27
- Tumor vol. [3]: 0.27 and 0.22 and 0.13 and 0.34 and 0.18 and 0.19 and 0.37 and 0.17
- Tumor vol. Average (Celecoxib/40 ppm, Day 31 Apr. 2, 2001, group average): 0.48
- Paw volume, paw [4]: 0.7 and 0.48 (2×) and 0.25 and 0.75 and 0.44 and 0.38 and 0.89
- Tumor vol. [4]: 0.60 and 0.38 (2×) and 0.18 and 0.55 and 0.34 and 0.28 and 0.79
- Tumor vol. Average (Celecoxib/40 ppm, Day 31 Mar. 30, 2001, group average): 0.40
- Paw volume, paw [5]: 0.63 and 0.51 and 0.27 and 0.72 and 0.30 and 0.39 and 0.71 and 0.41
- Tumor vol. [5]: 0.53 and 0.41 and 0.17 and 0.82 and 0.29 and 0.20 and 0.61 and 0.31
- Paw volume, paw (Celecoxib/160 ppm, Day 14 Mar. 13, 2001): 0.19 and 0.26 and 0.22 and 0.3 and 0.23 (3×) and 0.28
- Tumor vol. Average (Celecoxib/160 ppm, Day 17 Mar. 16, 2001, group average (row not labelled)): 0.18
- Paw volume, paw [6]: 0.24 and 0.25 (2×) and 0.21 and 0.31 and 0.23 and 0.29 and 0.27
- Tumor vol. [6]: 0.14 and 0.15 (2×) and 0.11 and 0.21 and 0.13 and 0.19 and 0.17
- Tumor vol. Average (Celecoxib/160 ppm, Day 21 Mar. 20, 2001, group average (row not labelled)): 0.15
- Paw volume, paw [7]: 0.22 and 0.28 (2×) and 0.24 and 0.32 and 0.3 (2×) and 0.25
- Tumor vol. [7]: 0.12 and 0.16 (3×) and 0.14 and 0.22 and 0.20 (2×)
- Tumor vol. Average (Celecoxib/160 ppm, Day 24 Mar. 23, 2001, group average (row not labelled)): 0.19
- Paw volume, paw [8]: 0.22 and 0.28 and 0.24 (2×) and 0.38 and 0.27 and 0.35 and 0.31
- Tumor vol. [8]: 0.12 and 0.16 and 0.14 (2×) and 0.28 and 0.17 and 0.26 and 0.21
- Tumor vol. Average (Celecoxib/160 ppm, Day 31 Apr. 2, 2001, group average (row not labelled)): 0.29
- Paw volume, paw [9]: 0.33 (3×) and 0.57 and 0.29 and 0.59 and 0.4 and 0.28
- Tumor vol. [9]: 0.23 (2×) and 0.22 and 0.47 and 0.19 and 0.49 and 0.30 and 0.10
- Tumor vol. Average (Celecoxib/160 ppm, Day 31 Mar. 30, 2001, group average (row not labelled)): 0.29
- Paw volume, paw [10]: 0.38 and 0.32 and 0.3 and 0.49 and 0.33 and 0.57 and 0.4 and 0.5
- Tumor vol. [10]: 0.28 and 0.22 and 0.20 (2×) and 0.39 and 0.23 and 0.47 and 0.30
